According to patent publication US9567291B2, “N-(4-(bis(4-(dimethylamino)phenyl)methylene)-8-(dimethylamino)” (EMORY UNIVERSITY, priority 2013, dated 2017):
“Also recorded” adds a separate entry of the source.

Key:
Format in all cases: cell-based
A375 cells = assay: cell proliferation assay, A375 cells; settings: 24 h treatment; for inhibition of cell proliferation: cell count, FIG. 4A/5A
Experimental: (§1) FIG. 1 illustrates the cell proliferation assay procedure. 5×10^4 cells were seeded in 24-well plates and incubated for 24 h. Stock solutions of PSB, PSMB, and IB were diluted into 5 mL of appropriate media samples for each treatment concentration (1 μM, 2.5 μM, etc). One mL was then added to each of the four wells per treatment concentration. Cells were incubated for 24 h in standard conditions. Cells were then washed with Phosphate Buffered Saline (Sigma Aldrich) and harvested by trypsinization (0.5 mL/well). Cells were incubated for 10 minutes in standard conditions and diluted into a 10 mL isotone solution. The isotone solution was subsequently placed into a cell counter, providing a count that represented 1/20 the number of cells per well.
(§2) A375 cells were grown in high-glucose Dulbecco's modified Eagle's medium (DMEM) (Mediatech) supplemented with fetal bovine serum (FBS) and penicillin/streptomycin (Sigma-Aldrich) in standard conditions (37° C., 5% CO2, humidified atmosphere). LM36 and LM36R cells were grown in cultured in RPMI medium supplemented with 10% FBS, L-glutamine and antibiotics in standard conditions (37° C., 5% CO2, humidified atmosphere).

LM36R cells = assay: cell proliferation assay, LM36R cells; settings: 24 h treatment
Experimental: as §1, §2

LM36 cells = assay: cell proliferation assay, LM36 cells; settings: 24 h treatment
Experimental: as §1, §2

| Substance | antiproliferative potency compared to IB (A375 cells) | inhibition of cell proliferation (A375 cells) | antiproliferative potency compared to IB (LM36R cells) | antiproliferative potency compared to IB (LM36 cells) | inhibition of cell proliferation (LM36R cells; cell count, FIG. 4B/5B) | inhibition of cell proliferation (LM36 cells; cell count, FIG. 4C/5C) |
| --- | --- | --- | --- | --- | --- | --- |
| N-(4-(bis(4-(diethylamino)phenyl)methylene)-8-(dimethylamino) naphthalen-1(4H)-ylidene)-N-methylmethanaminium [PSB] | only exhibits greater antiproliferative effects in A375 cells; also recorded: more potent than IB | inhibits A375 proliferation in a concentration-dependent fashion | Such a trend is not observed | Such a trend is not observed | – | – |
| N-(4-(bis(4-(dimethylamino)phenyl)methylene)-8-(dimethylamino)naphthalen-1(4H)-ylidene)-N-methylmethanaminium [PSMB] | greater antiproliferative effects than IB; also recorded: more potent inhibition than IB | anti-proliferative effects that operate in a concentration-dependent fashion | greater antiproliferative effects than IB; also recorded: more potent inhibition than IB | greater antiproliferative effects than IB; also recorded: more potent inhibition than IB | anti-proliferative effects that operate in a concentration-dependent fashion | anti-proliferative effects that operate in a concentration-dependent fashion |
